Reference: patent US9205069B2, “Inhibitors of anaphase promoting complex activity” (President and Fellows of Harvard College, priority 2009, dated 2015)

Experiments:
[1] = tested on: proteasomal degradation of ubiquitinated cyclin B1; assay: degradation of pre-ubiquitinated 35S-cyclin B1 in interphase extract; assay type: biochemical, Xenopus; conditions: TAME 200 μM
Experimental: At indicated time points, all protein was precipitated and the level of radioactivity in supernatant was measured by scintillation counting. MG262 was used as a positive control.
A purified MPF complex containing 35S-labeled cyclin B1 was ubiquitinated by APC in a reconstituted ubiquitination system, and then added to interphase Xenopus extract in the presence or absence of inhibitors.

[2] = tested on: APC-Cdc20; assay: in vitro ubiquitination assay with APC immunopurified from mitotic extract; assay type: biochemical, Xenopus; conditions: 200 μM, added into ubiquitination reaction
Description: APC was immunoprecipitated from mitotic extract and tested in an in vitro ubiquitination assay.

[3] = tested on: APC-Cdh1; assay: in vitro ubiquitination assay with interphase APC activated by recombinant Cdh1; assay type: biochemical, Xenopus; conditions: 200 μM, added into ubiquitination reaction
Description: APC was then immunoprecipitated and tested in an in vitro ubiquitination assay.

[4] = tested on: cyclin B1 degradation and Cdc27 phosphorylation; assay: mitotic arrest in Xenopus extract after MPF addition (Western blot); assay type: biochemical; conditions: 200 μM, interphase extract plus MPF
[5] = molecular target: T1, human APC (Homo sapiens, UniProt P30260+Q13042+Q9UJX2+Q9UJX3); assay: 3H-TAME binding to APC in asynchronous HeLa cell lysate
T1 construct: endogenous in cells; host or cells: asynchronous HeLa cells (lysate)
Description: The same experiment was done as described in 3C using asynchronous Hela cell lysate.

[6] = tested on: APC-dependent proteolysis; assay: cyclin B-luciferase degradation in mitotic Xenopus egg extract (luciferase assay); conditions: derivatives tested at 200 μM
Experimental: Samples were collected at 60 minutes and the remaining reporter level was measured by luminescence. Interphase extract was used as a negative control.

[7] = tested on: interaction between APC and IR peptide; assay: APC recruitment from interphase extract by IR peptide resin; assay type: binding, Xenopus; conditions: 200 μM
Experimental: Top panel: Iodoacetyl resin was coupled with cysteine, a 21aa C-terminal peptide of Cdh1 or a 19aa peptide missing the C-terminal IR tail. The resin was incubated with interphase extract and the amount of Cdc27 bound on resin was analyzed.

[8] = tested on: Xenopus APC; assay: 3H-TAME binding to APC in interphase extract (Cdc27 immunoprecipitation, scintillation counting); conditions: 200 nM 3H TAME
Experimental: Interphase extract was subjected to three rounds of immunoprecipitation with Cdc27 antibody. […] The specific counts associated with the beads were determined by scintillation counting.
(§1) The specific counts associated with the beads were determined by scintillation counting.
as §1
In parallel, the amount of immunoprecipitated Cdc27 was determined by immunoblot.

Row | Compound | degradation of pre-ubiquitinated cyclin B1 [1] | APC ligase activity, compound added directly to reconstituted ubiquitination assay [2] | APC-Cdh1 activity, compound added directly to reconstituted assay [3] | cyclin B1 and Cdc27 phosphorylation after MPF addition [4] | competition with specific 3H-TAME binding to human APC [5] | activity of TAME derivatives in luciferase assay [6] | APC recruitment by IR peptide resin [7] | competition with specific binding of 3H-TAME to Xenopus APC [8]
1 | CC(C)C[C@H](NC(=O)[C@H](CC(C)C)NC(=O)[C@H](CC(C)C)NC(=O)OCc1ccccc1)B(O)O [MG262] | strongly inhibited | – | – | – | – | – | – | –
2 | COC(=O)[C@H](CCCNC(=N)N)NC(C)=O [AAME, acetyl-L-arginine methylester] | – | did not inhibit APC | did not inhibit APC | degraded by 30 min | did not | lowest activity | no effect | did not
